In patent US5905090A, “Analogues of the active metabolite of leflunomide” (Italfarmaco S.p.A., priority 1998, dated 1999):

Tests used:
[1] = test system: murine splenocytes (BALB/c and DBA/2 mice); test: Mixed lymphocyte reaction (MLR), bi-directional, [3H]-thymidine proliferation; type: cell-based, murine (BALB/c and DBA/2 mice); conditions: Mus musculus, Splenocyte, 96 hours
Experimental: Mixed lymphocyte reaction (MLR).
Bi-directional MLR was carried out using murine cells. Splenocytes were prepared from BALB/c and DBA/2 mice (18-20 g) Charles River, Calco, Italy). Briefly, single cell suspensions were isolated from spleen by Ficoll-Hypaque (biochrom, Berlin, Germany) density gradient centrifugation. 5×10^4 splenocytes from each preparation was cultured for 96 hours in triplicate in 96-well round-bottom plates (Nunc, Roskilde, Denmark), in the absence or presence of serial dilutions of the tested compounds. All compounds were dissolved in dimethyl sulfoxide (DMSO) to a final 20 mM concentration and then diluted into the culture medium used for the cell assay. To take into account a possible interference from DMSO, each experiment included a control in which the DMSO concentration was made equal to those of compound-treated cultures. Culture medium used was RPMI 1640 (Biochrom, Berlin, Germany), supplemented with 5% foetal bovine serum (Hyclone Laboratories Inc., Logan, Utah), 50 μm 2-mercaptoethanol, 2 mM L-glutamine, 0.1 mM non-essential amino acids, 1 mM sodium pyruvate, 100 IU/ml penicillin, and 100 μg/ml streptomycin. During the last 18 hours of culture, cells were pulsed with 1 μCi of [^3 H]-thymidine (Amersham, UK) and then harvested onto glass fiber filters by means of a cell harvester. Radioacivity, proportional to proliferation, was measured with a β-counter.

[2] = test system: CD2; test: Inhibition of lymphocyte activation antigens expression: CD2 (OKT3-stimulated PBMC, flow cytometry); type: cell-based; conditions: human PBMC, 24 hr
Experimental: (§1) Inhibition of lymphocyte activation antigens expression.
(§2) Human peripheral blood mononuclear cells (PBMC) from healthy donors were separated by Ficoll-Hypaque density-gradient centrifugation. The cells recovered were suspended in culture medium (RPMI 1640 supplemented with 10% foetal bovine serum, 2 mM L-glutamine, 100 IU/ml penicillin and 100 μg/ml streptomycin).
(§3) PBMC, suspended at a density of 10^6 cells/ml in culture medium, were incubated in 24-well plates (Costar, Cambridge, Mass.) with the tested compounds and, 30 min later, stimulated with optimal concentration of the monoclonal antibodies OKT3 (Ortho Diagnostic Inc., Raritan, N.J.) for 24 hr at 37° C. and under 5% CO2. At the end of incubation, cells were washed twice with PBS containing 2% human serum (Irvine Scientific, Irvine, Calif.) and then incubated with fluorescein isothiocyanate (FITC)-conjugated monoclonal antibodies (Mab) for 30 min on ice. Cells were then washed as above and fluorescence analysis was performed by flow-cytometry on a FACScan (Becton-Dickinson, Mountain View, Calif.). The Mabs used were anti-Leu5b (CD2), anti-Interleukin-2 receptor (CD25) and anti transferrin receptor (CD71). Fluorescence background was determined by incubating the cells with FITC-conjugated mouse IgG of the relevant isotype. Forward- and right-angle scatter were set in order to include lymphocytes and lymphoblasts. The results, expressed as percentage of inhibition of mean fluorescence (MF), were calculated as follows: [formula]

[3] = test system: CD25; test: Inhibition of lymphocyte activation antigens expression: CD25 (OKT3-stimulated PBMC, flow cytometry); type: cell-based; conditions: human PBMC, 24 hr
Experimental: as §1, §2, §3

[4] = test system: CD71; test: Inhibition of lymphocyte activation antigens expression: CD71 (OKT3-stimulated PBMC, flow cytometry); type: cell-based; conditions: human PBMC, 24 hr
Experimental: as §1, §2, §3

[5] = test system: antigen-induced paw edema (KLH-immunised BALB/c mice); test: Antigen-induced paw edema in the mouse; type: in vivo, mouse (female BALB/c); conditions: daily day 0 to day 13, 8 hours after challenge
Experimental: Antigen-induced paw edema in the mouse.
Groups of 4-8 female BALB/c mice (20-22 g; Charles River, Calco, Italy) were immunised at days 0 and 7 with two s.c. injections, of keyhole limpet hemocyanin (KLH, 100 μg/mouse; Sigma Chemicals, S. Louis, Mo.) emulsified in 0.2 ml complete Freund's adjuvant (CFA, Sigma Chemicals, S. Louis, Mo.). Non-immunised mice (Control) were treated with CFA alone. On day 14, immunised mice were challenged in the hind footpad with 20 μg KLH suspended in physiological solution. Eight hours after antigen challenge the edema was quantified measuring the dorsal-ventral thickness of the footpad with a scientific micrometer (Borletti, Italy). To evaluate their immunosuppressive activity, the compounds were administered daily from day 0 to day 13.

[6] = test system: adjuvant arthritis (complete Freund's adjuvant); test: Adjuvant arthritis in the rat; type: in vivo, rat (male Lewis); conditions: p.o. daily

Row | IC50 [2] [µM] | IC50 [3] [µM] | IC50 [4] [µM] | Structure (SMILES) | IC50 [1] [µM] | Percentage of inhibition of edema formation ([5]; 10 mg/Kg i.p.) [%] | Inhibition (%) of arthritis score ([6]; Day 14) [%] | Arthritis score ([6]; Day 14, vehicle score 3.6 ± 0.5) | Inhibition (%) of arthritis score ([6]; Day 17) [%] | Arthritis score ([6]; Day 17, vehicle score 4.8 ± 0.4) | Inhibition (%) of arthritis score ([6]; Day 21) [%] | Arthritis score ([6]; Day 21, vehicle score 4.8 ± 0.6) | Percentage of inhibition of edema formation ([5]; 10 mg/Kg p.o.) [%]
1 | 95.4 | > 100 | > 100 | O=C1CCCC(O)=C1C(=O)Nc1ccc(C(F)(F)F)cc1 [Example 4] | 45.9 ± 29.5 |  |  |  |  |  |  |  | 
2 | 13.8 | 14.8 | 66.5 | O=C(Nc1ccc(C(F)(F)F)cc1)C1=C(O)COC1=O [Example 2, N-(4-trifluoromethylphenyl)-4-hydroxy-2-oxo-(5H)-furan-3-carboxamide] | 3.4 ± 1.1 |  |  |  |  |  |  |  | 
3 | 3 | 2.4 | 4.4 | O=C(Nc1ccc(C(F)(F)F)cc1)c1ccccc1O [Example 5, N-(4-trifluoromethylphenyl)-2-hydroxy-benzamide] | 1.65 ± 0.1 | 37 |  |  |  |  |  |  | 
4 | 15.3 | 18.4 | 18.8 | CC(O)=C(C(=O)Nc1ccc(C(F)(F)F)cc1)C(=O)Nc1ccc(C(F)(F)F)cc1 [Example 1, N-(4-trifluoromethylphenyl)-2-(4-trifluoromethylphenylcarbamoyl)-3-hydroxybut-2-enamide] | 11.9 ± 0.1 |  |  |  |  |  |  |  | 
5 | 2.9 | 2.9 | 11 | O=C1CCC(O)=C1C(=O)Nc1ccc(C(F)(F)F)cc1 [Example 3] | 1.25 ± 0.2 |  | 42 | 2.1 ± 0.1 | 46 | 2.6 ± 0.1 | 19 | 3.9 ± 0.2 | 
6 | 126 | 130 | > 100 | Cc1oncc1C(=O)Nc1ccc(C(F)(F)F)cc1 [Leflunomide, 5-methyl-N-(4-trifluoromethylphenyl)isossazole-4-carboxamide] | 9.6 ± 3.1 |  |  |  |  |  |  |  | 43
